Measured values from patent US10745365B2, “Luminogenic and fluorogenic compounds and methods to detect molecules or conditions” (Promega Corporation, priority 2005, dated 2020).

System: panel of recombinant human P450s
Assay: Two-step luminescent screen of luciferin derivatives against a panel of recombinant human P450s and HLM
Format: biochemical
Conditions: 50 μM substrate, panel of FIGS. 17-18
Experimental: P450s are Supersomes™ purchased from Discovery Labware (BD/Gentest). […] HLM is human liver microsomes.
1× substrate concentration: 50 μM.
The HLM reactions contained […] reaction, except where indicated otherwise. Control insect cell membranes were at 50 μg/50 μL.
For FIG. 20, the panel of human P450s was screened as described above.

Compound: O=C(O)[C@H]1CSC(c2nc3ccc(OCc4c(F)c(F)c(F)c(F)c4F)cc3s2)=N1 [6′-(2,3,4,5,6-pentafluorobenzyloxy)-luciferin]
- P450 enzyme activity / selectivity (words): selective for three members of the CYP3A subfamily, CYP3A4, CYP3A5 and CYP3A7
- P450 enzyme activity / selectivity (words) (listed as 6(2,3,4,5,6 pentafluorbenzyloxy)-luciferin): showed substantial activity with CYP3A4 and did not show substantial cross reactivity with CYP4F12

Compound: COC(=O)[C@H]1CSC(c2nc3ccc(OC)cc3s2)=N1 [carboxyl ester of luciferin-ME, carboxyl methyl ester of luciferin-ME]
- P450 enzyme activity / selectivity (words): reacted strongly with several other P450s including CYP2C19

Compound: Cc1cc(C)c(COc2ccc3nc(C4=N[C@@H](C(=O)O)CS4)sc3c2)c(C)c1 [6′(2,4,6-trimethylbenzyloxy)-luciferin]
- P450 enzyme activity / selectivity (words): selective for three members of the CYP3A subfamily, CYP3A4, CYP3A5 and CYP3A7
- P450 enzyme activity / selectivity (words) (listed as 6(2,4,6 trimethylbenzyl)-luciferin): showed substantial activity with CYP3A4 and did not show substantial cross reactivity with CYP4F12

Compound: O=C(O)C1CSC(c2nc3ccc(OCc4cccc(CN5CCN(c6ccccc6)CC5)c4)cc3s2)=N1 (centres unmarked) [Luciferin 3-(4-phenylpiperazin-1-yl)methylbenzyl ether]
- P450 enzyme activity / selectivity (words): selective for three members of the CYP3A subfamily, CYP3A4, CYP3A5 and CYP3A7
- P450 enzyme activity / selectivity (words) (listed as 6′(3-((4-phenylpiperizin-1-yl))methyl)benzyloxy) luciferin): did not cross react with 4F1 2

Compound: COc1ccc2nc(C3=N[C@@H](C(=O)O)CS3)sc2c1 [luciferin 6-methyl ether, reference compound]
- P450 enzyme activity / selectivity (words): extremely low activity with CYP2D6

Compound: COc1ccc2cc(C3=N[C@@H](C(=O)O)CS3)ccc2c1 [Naphthylluciferin 6-methyl ether]
- P450 enzyme activity / selectivity (words): substrate for 4A11

Compound: 4-methyl-6-(O-methyl)-luciferin
- P450 enzyme activity / selectivity (words): enhanced selectivity for 1 A2, 2C8 and 2C9

Compound: COc1ccc2nc(C3=NC(C(=O)OCc4cccnc4)CS3)sc2c1 (centres unmarked)
- P450 enzyme activity / selectivity (words): preference for 2D6, 1A1 and 1A2

Compound: O=C(OCc1cccnc1)[C@H]1CSC(c2nc3ccccc3s2)=N1 [carboxyl picolinyl ester of luciferin-H]
- P450 enzyme activity / selectivity (words): preference for 2C19, 1A1 and 1A2

Compound: O=C(O)[C@H]1CSC(c2nc3ccc(OCc4ccccc4C(F)(F)F)cc3s2)=N1 [6′(o-trifluoromethylbenzyloxy)-luciferin]
- P450 enzyme activity / selectivity (words): selective for three members of the CYP3A subfamily, CYP3A4, CYP3A5 and CYP3A7
- P450 enzyme activity / selectivity (words) (listed as 6—O-trifluoromethylbenzyl luciferin): showed substantial activity with CYP3A4 and did not show substantial cross reactivity with CYP4F12

Compound: O=C(Nc1ccc2nc(C3=NC(C(=O)O)CS3)sc2c1)OCc1ccccc1 (centres unmarked) [N-benzyloxycarbonyl aminoluciferin]
- P450 enzyme activity / selectivity (words): strong selectivity for CYP1A1

Compound: CC(C)COC(=O)Nc1ccc2nc(C3=NC(C(=O)O)CS3)sc2c1 (centres unmarked) [N-isobutoxycarbonyl aminoluciferin]
- P450 enzyme activity / selectivity (words): strong selectivity for CYP1A1

Compound: COc1ccc2nc(C3=N[C@@H](C(=O)NN)CS3)sc2c1 [luciferin-6-methylether hydrazide]
- P450 enzyme activity / selectivity (words): good selectivity for CYP 1A2 over the other P450s tested

Compound: COc1ccc2nc(C3=NC(C(=O)O)CS3)cnc2c1 (centres unmarked) [quinoxalylluciferin 6-methyl ether]
- P450 enzyme activity / selectivity (words): substrate for 4A11

Compound: 4-(O-methyl)-6-(O-methyl)-luciferin
- P450 enzyme activity / selectivity (words): enhanced selectivity for 1 A2, 2C8 and 2C9

Compound: O=C(O)[C@H]1CSC(c2nc3ccc(OCSc4ccc(Cl)cc4)cc3s2)=N1 [6′-p-chlorophenylthiol-methoxy-luciferin, 6-(4-Chloro-phenylthiomethoxy)luciferin]
- P450 enzyme activity / selectivity (words): showed selectivity for CYP3A7
